Experimental data published in patent US20160177259A1, “[…]” (Evonik Degussa GmbH, priority 2014, published 2016).

Test system: Clostridium ljungdahlii
Assay: Autotrophic production in carbonate buffer on synthesis gas with 0.4 g/l or no L-cysteine HCl (Example 2)
Format: cell-based
Conditions: for Acetate (NMR) / Ethanol (NMR) / OD600 / Δp: reactor 2, 0.4 g/L L-Cysteine-HCl
Method: For the production, anaerobic carbonate buffer (adjusted with KOH 1.87 g/L) was used.
Identical autotrophic productions were carried out in 500 mL septum bottles with 100 mL of carbonate carried out in a shaking water bath shaker (open Innova 3100 by New Brunswick Scientific) at 100 min^−1. The productions were carried out at 37° C. with manual control of the pH. Once the pH dropped below 5.5, KOH was metered from a stock solution of 187 g/L. In the present experiments the pH in both reactors at points in time of 50.3 h and 73.3 h were taken and corrected by the addition of each 1.87 g/L KOH manually.
The reactors were inoculated with a synthesis gas mixture of 67% H2 and 33% CO2 pressurized with an overpressure of 0.8 bar. To replenish the consumed gas, the gas atmosphere was completely replaced once a day in the headspace of the reactors and again pressured to 0.8 bars.
The reactor 1 contained a concentration of L-cysteine HCl of 0 g/L, and reactor 2 a concentration of L-cysteine HCl of 0.4 g/L.
The reactors started with autotrophic cells at an OD of 0.2. The pre-culture was carried out continuously in a 1 L bottle with 500 ml of complex medium. The complex medium comprised of 1 g/l NH4Cl, 0.1 g/l KCl, 0.2 g/l MgSO4×7 H2O, 0.8 g/l NaCl, 0.1 g/l KH2PO4, 20 mg/l CaCl2×2 H2O, 20 g/l MES, 1 g/l yeast extract, 0.4 g/L L-cysteine HCl, 20 mg/l nitrilotriacetic acid, 10 mg/l MnSO4 H2O x, 8 mg/l (NH4)2Fe(SO4)2×6 H2O, 2 mg/L CoCl2×6 H2O, 2 mg/l ZnSO4×7 H2O, 0.2 mg/l CuCl2×2H2O, 0.2 mg/l Na2MoO4×2 H2O, 0.2 mg/l NiCl2×6 H2O, 0.2 mg/l Na2SeO4, 0.2 mg/l Na2WO4×2 H2O, 20 μg/l d-biotin, 20 μg/L folic acid, 100 μg/l pyridoxine HCl, 50 μg/l thiamine-HCl×H2O. 50 μg/l of riboflavin, 50 μg/l nicotinic acid, 50 μg/l Ca-pantothenate, 1 μg/L of vitamin B12, 50 μg/l p-aminobenzoate, 50 μg/l lipoic acid. The gassing of the culture with synthesis gas (67% H2, 33% CO2) was carried out continuously at a flow rate of 3 l/h over a filter with pore size of 10 microns. The cells were in late log phase of growth at an OD of 0.23 anaerobically centrifuged (4500 rpm, 4300 g, 20° C., 10 min). The supernatant was discarded and the cell pellet resuspended in 10 ml carbonate buffer. The prepared cells were then used to inoculate the actual experiments.
When sampling each 5 ml sample was removed for determination of 0D600, pH and the product range. The determination of the product concentration was performed by quantitative ^1H-NMR spectroscopy. As an internal quantification standard sodium trimethylsilylpropionate (T(M)SP) was used.

## Cl.N[C@@H](CS)C(=O)O [L-Cysteine-HCl, L-cysteine hydrochloride]
0.4 g/L compared with no L-cysteine-HCl, end of 98.8 h reaction time
  concentrations of ethanol and acetate formed: higher
0.0 h
  Acetate (NMR): 15 mg/L
  Ethanol (NMR): 5 mg/L
  OD600: 0.18
26.0 h
  Acetate (NMR): 1714 mg/L
  Ethanol (NMR): 21 mg/L
  OD600: 0.18
  Δp: 0.6 bar
50.3 h
  Acetate (NMR): 2471 mg/L
  Ethanol (NMR): 91 mg/L
  OD600: 0.19
  Δp: 0.5 bar
74.3 h
  OD600: 0.18
  Δp: 0.4 bar
98.8 h
  Acetate (NMR): 3366 mg/L
  Ethanol (NMR): 84 mg/L
  OD600: 0.18
  Δp: 0.2 bar
Reactor 2 with 0.4 g/L compared with 0 g/L L-cysteine-HCl, over 98.8 h
  gas consumption: higher
